Where “and” joins values, the source holds several entries; their conditions need not be identical. Equal entries are not always repeated. Non-standard residues stand in square brackets, D forms with d. Residues, ends and D or L forms follow the SMILES beside them. Pra = C#CC[C@H](N)C(=O)O
What was measured:
SARS-CoV-2 Alpha RBD = SARS-CoV-2 Alpha RBD (Severe acute respiratory syndrome coronavirus 2, UniProt P0DTC2); test: biochemical; format: binding
SARS-CoV-1 RBD = SARS-CoV-1 RBD (Severe acute respiratory syndrome coronavirus, UniProt P59594); test: biochemical; format: binding
[1] = target: SARS-CoV-1 spike RBD RBD (Severe acute respiratory syndrome coronavirus), P59594; test: SPR; conditions: modification not given

Row | Molecule | Kd (SARS-CoV-2 Alpha RBD) [nM] | kon (SARS-CoV-2 Alpha RBD; read-out: ka) [M⁻¹ s⁻¹] | ka (SARS-CoV-2 Alpha RBD; spr) | Kd (SARS-CoV-1 RBD) [nM] | kon (SARS-CoV-1 RBD; read-out: ka) [M⁻¹ s⁻¹] | Kd [1] [nM]
1 | C#CC[C@H](NC(=O)[C@H](CC(C)C)NC(=O)[C@H](CCCCN)NC(=O)[C@@H](NC(=O)[C@@H](NC(=O)[C@H](CC(C)C)NC(=O)[C@H](CC(N)=O)NC(=O)[C@H](Cc1ccc(O)cc1)NC(=O)[C@@H](NC(=O)[C@H](CCC(=O)O)NC(=O)[C@H](Cc1ccc(O)cc1)NC(=O)[C@H](CC(C)C)NC(=O)[C@@H]1CCCN1C(=O)[C@H](Cc1ccc(O)cc1)NC(=O)[C@H](CCSC)NC(=O)[C@H](CCC(N)=O)NC(=O)[C@H](C)NC(=O)[C@H](CC(C)C)NC(=O)[C@@H](NC(=O)[C@H](CO)NC(=O)[C@@H](N)CCC(N)=O)[C@@H](C)O)[C@@H](C)CC)[C@@H](C)O)C(C)C)C(N)=O [a2] (H-QSTLAQMYPLYEIYNLTVKL[Pra]-NH2) | 89 ± 5 | 59300 | 5,66e4 M-1s-1 and 6,08e4 M-1s-1 | 21 ± 5 | 85900 | –
2 | QSTLAQMYPLYEIYNLTVKL [ACE2 epitope a2] | – | – | – | – | – | 21

— paper PMC12457685 (Scientific Reports, 2025)
